Legend:
c-Src = c-Src (Homo sapiens (Human), UniProt P12931); experiment: c-Src enzyme inhibition (FRET, Z-LYTE); type: biochemical
In short: (§1)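 Z-LYTE FRET; enzyme + cpd 2 hr RT, then peptide + ATP 1 hr (ATP added soln: c-Src 800 μM, Syk 60 μM); protease 1 hr. Donor/acceptor emission ratio, % inhib vs uninhibited control, IC50 from curve.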

Syk = Syk (Homo sapiens (Human), UniProt P43405); experiment: Syk enzyme inhibition (FRET, Z-LYTE); type: biochemical
In short: as §1

GSK 3α = GSK 3α (Homo sapiens (Human), UniProt P49840); experiment: GSK 3α enzyme inhibition (FRET, Z-LYTE, Method 2); type: biochemical; conditions: read-out: IC50 Values for Enzyme Inhibition, GSK3α
GSK 3α, sequence (P49840 whole entry): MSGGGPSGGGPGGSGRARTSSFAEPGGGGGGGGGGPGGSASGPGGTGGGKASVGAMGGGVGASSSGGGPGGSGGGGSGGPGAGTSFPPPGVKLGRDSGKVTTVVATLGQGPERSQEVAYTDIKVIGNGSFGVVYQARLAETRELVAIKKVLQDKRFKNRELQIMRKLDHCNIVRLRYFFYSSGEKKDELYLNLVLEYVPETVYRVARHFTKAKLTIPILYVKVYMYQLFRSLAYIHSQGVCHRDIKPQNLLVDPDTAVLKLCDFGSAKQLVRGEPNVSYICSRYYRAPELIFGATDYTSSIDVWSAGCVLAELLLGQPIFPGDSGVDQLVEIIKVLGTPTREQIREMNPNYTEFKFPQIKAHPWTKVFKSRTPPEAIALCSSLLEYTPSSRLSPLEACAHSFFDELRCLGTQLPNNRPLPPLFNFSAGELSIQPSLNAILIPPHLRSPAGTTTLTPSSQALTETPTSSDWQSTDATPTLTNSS
In short: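 Human GSK3α (500 ng/mL) preincubated with compound (4, 0.4, 0.04 or 0.004 μg/mL) at RT for 2 h (Method 1) or 105 min (Method 2). Then FRET peptide (8 μM) and ATP (40 μM) added for 1 h, followed by protease development for 1 h. IC50 from the coumarin/fluorescein emission ratio relative to uninhibited control.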

PBMCs [1] = experiment: LPS-induced IL-8 release in PBMC cells (assay b); type: cell-based, human; conditions: Homo sapiens, PBMC; LPS-stimulated PBMCs; read-out: IC50 Values for Inhibition of Cytokine Release, PBMCs IL-8
In short: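 Cytokines (TNFα, IL-8) in supernatants were quantified by sandwich ELISA after a 24 h challenge with 1 ng/mL E. coli LPS at 37° C, 5% CO2. Healthy-donor PBMCs had been exposed to compound for 2 h beforehand. IC50 values were fitted from the concentration-response curves.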

PBMCs [2] = experiment: IL-2 release in CD3/CD28 stimulated PBMC cells (assay c); type: cell-based; conditions: Homo sapiens, read-out: IC50 Values for Inhibition of Cytokine Release, PBMCs IL-2
In short: (§2)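 Compound added to human PBMCs on anti-CD3/anti-CD28-coated wells (0.3 and 3 μg/mL respectively); 3-day culture. Sandwich ELISA of supernatant IL-2 or IFN gamma gives the read-out, with IC50 derived from the dose-response curve.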

PBMCs [3] = experiment: IFN gamma release in CD3/CD28 stimulated PBMC cells (assay c); type: cell-based; conditions: Homo sapiens, read-out: IC50 Values for Inhibition of Cytokine Release, PBMCs IFNγ
In short: as §2

d-U937 cells = experiment: Accumulation of β catenin in d-U937 cells (assay m); type: cell-based, human; conditions: percentage relative to Reference Compound at 1 μg/mL
In short: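 Read-out: colourimetric cell-based immunoassay for endogenous β-catenin (OD450 minus 655 reference), normalised to crystal violet absorbance at 595 nm. Test compound or vehicle was applied for 18 hr to U937 monocytes first differentiated with PMA (100 ng/mL) for 48–72 hr.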

c-Src, sequence (P12931 whole entry, looked up): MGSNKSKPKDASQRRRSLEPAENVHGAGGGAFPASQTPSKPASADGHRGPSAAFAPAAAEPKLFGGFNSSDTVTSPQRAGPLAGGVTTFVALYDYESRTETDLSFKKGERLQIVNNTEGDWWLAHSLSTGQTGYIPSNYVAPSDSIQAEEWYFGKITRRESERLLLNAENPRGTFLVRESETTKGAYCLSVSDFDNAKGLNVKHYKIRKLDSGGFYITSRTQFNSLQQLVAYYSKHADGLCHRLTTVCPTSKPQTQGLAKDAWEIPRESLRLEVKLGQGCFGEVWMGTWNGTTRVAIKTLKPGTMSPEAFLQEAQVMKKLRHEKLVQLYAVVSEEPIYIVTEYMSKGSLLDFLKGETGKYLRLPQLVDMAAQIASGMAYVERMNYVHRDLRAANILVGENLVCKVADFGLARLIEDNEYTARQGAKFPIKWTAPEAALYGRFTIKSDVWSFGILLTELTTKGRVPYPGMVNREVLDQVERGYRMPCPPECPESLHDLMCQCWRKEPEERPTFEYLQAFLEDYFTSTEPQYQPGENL

Row | SMILES | IC50 (c-Src) [µM] | IC50 (Syk) [µM] | IC50 (GSK 3α) [µM] | IC50 (PBMCs [1]) [µM] | IC50 (PBMCs [2]) [µM] | IC50 (PBMCs [3]) [µM] | % β-catenin induction (d-U937 cells; test compound 1 μg/mL) [%] | % β-catenin induction (d-U937 cells; test compound 5 μg/mL) [%] | % β-catenin induction (d-U937 cells; test compound 10 μg/mL) [%]
1 | COc1cncc(Nc2cc(Oc3ccc(NC(=O)Nc4cc(C(C)(C)C)cc(CC(N)=O)c4OC)c4ccccc34)ccn2)c1 [38(n), 2-(5-(tert-butyl)-2-methoxy-3-(3-(4-((2-((5-methoxypyridin-3-yl)amino)pyridin-4-yl)oxy)naphthalen-1-yl)ureido)phenyl)acetamide] | 0.095 | > 1.61 | 1.2 | 0.0014 | 0.348 | 0.0141 | 2.0 | 21.0 | 23.5
2 | COc1c(CC(N)=O)cc(C(C)(C)C)cc1NC(=O)Nc1ccc(Oc2ccnc(Nc3ccn(C)n3)c2)c2ccccc12 [38(o), 2-(5-(tert-Butyl)-2-methoxy-3-(3-(4-((2-((1-methyl-1H-pyrazol-3-yl)amino)pyridin-4-yl)oxy)naphthalen-1-yl)ureido)phenyl)acetamide] | 0.047 | 0.381 | 1.05 | 0.0013 | 0.0608 | 0.0078 | 13.0 | 38.0 | 35.0
3 | COc1c(CNC(C)=O)cc(C(C)(C)C)cc1NC(=O)Nc1ccc(Oc2ccnc(NCc3ccccn3)c2)c2ccccc12 [38(q), N-(5-(tert-Butyl)-2-methoxy-3-(3-(4-((2-((pyridin-2-ylmethyl)amino)pyridin-4-yl)oxy)naphthalen-1-yl)ureido)benzyl)acetamide] | 0.383 | > 1.62 | 1.5 | 0.0014 | 0.443 | 0.0261 | 11.5 | 41.5 | 57.5
4 | COCCOCCOCCOc1cc(Nc2cc(Oc3ccc(NC(=O)Nc4cc(C(C)(C)C)cc(P(C)(C)=O)c4OC)c4ccccc34)ccn2)cc(OC)c1 [Example 2, 1-(5-(tert-Butyl)-3-(dimethylphosphoryl)-2-methoxyphenyl)-3-(4-((2-((3-methoxy-5-(2-(2-(2-methoxyethoxy)ethoxy)ethoxy)phenyl)amino)pyridin-4-yl)oxy)naphthalen-1-yl)urea] | 0.011 | 0.053 | 2.81 | 0.001 | 0.0761 | 0.0029 | 4.0 | 32.5 | 31.5
5 | C#Cc1cc(Nc2cc(Oc3ccc(NC(=O)Nc4cc(C(C)(C)C)cc(P(C)(C)=O)c4OC)c4ccccc34)ccn2)cc(C(=O)NCCOCCOCCOC)c1 [Example 3, 3-((4-((4-(3-(5-(tert-Butyl)-3-(dimethylphosphoryl)-2-methoxyphenyl)ureido)naphthalen-1-yl)oxy)pyridin-2-yl)amino)-5-ethynyl-N-(2-(2-(2-methoxyethoxy)ethoxy)ethyl)benzamide] | 0.038 | > 1.22 | 4.9 | 0.0028 | 0.181 | 0.0184 | 5.7 | 9.7 | 7.3
6 | COCCOCCOCCOc1cc(Nc2nccc(Oc3ccc(NC(=O)Nc4cc(C(C)(C)C)cc(C(=O)NCCN5CCOCC5)c4OC)c4ccccc34)n2)cc(OC)c1 [Example 8, 5-(tert-Butyl)-2-methoxy-3-(3-(4-((2-((3-methoxy-5-(2-(2-(2-methoxyethoxy)ethoxy)-ethoxy)phenyl)amino)pyrimidin-4-yl)oxy)naphthalen-1-yl)ureido)-N-(2-morpholinoethyl)-benzamide] | 0.014 | 0.042 | 0.788 | 0.0013 | 0.0414 | 0.0022 | 2.5 | 22.5 | 26.5
7 | COCCOCCOCCOc1cc(Nc2cc(Oc3ccc(NC(=O)Nc4cc(C(C)(C)C)cc(S(C)(=O)=O)c4OC)c4ccccc34)ccn2)cc(OC)c1 [Example 9, 1-(5-(tert-Butyl)-2-methoxy-3-(methylsulfonyl)phenyl)-3-(4-((2-((3-methoxy-5-(2-(2-(2-methoxyethoxy)ethoxy)ethoxy)phenyl)amino)pyridin-4-yl)oxy)naphthalen-1-yl)urea] | 0.052 | 0.233 | > 10.7 | 0.0035 | 0.0427 | 0.0094 | 4.5 | 5.5 | 0.0
8 | COCCOCCOCCOc1cc(Nc2cc(Oc3ccc(NC(=O)Nc4cc(C(C)(C)C)cc(P(C)(C)=O)c4)c4ccccc34)ccn2)cc(OC)c1 [Example 10, 1-(3-(tert-Butyl)-5-(dimethylphosphoryl)phenyl)-3-(4-((2-((3-methoxy-5-(2-(2-(2-methoxy-ethoxy)ethoxy)ethoxy)phenyl)amino)pyridin-4-yl)oxy)naphthalen-1-yl)urea] | 0.016 | > 0.887 | > 8.34 | 0.002 | 0.0886 | 0.0313 | −2.5 | −6.0 | −4.0
9 | COc1c(NC(=O)Nc2ccc(Oc3ccnc(Nc4ccccc4)c3)c3ccccc23)cc(C(C)(C)C)cc1P(C)(C)=O [Example 11, 1-(5-(tert-Butyl)-3-(dimethylphosphoryl)-2-methoxyphenyl)-3-(4-((2-(phenylamino)pyridin-4-yl)oxy)naphthalen-1-yl)urea] | 0.032 | 0.186 | 3.83 | 0.0023 | 0.0806 | 0.0105 | 5.0 | 19.7 | 27.3
10 | COc1c(CC(N)=O)cc(C(C)(C)C)cc1NC(=O)Nc1ccc(Oc2ccnc(Nc3ccccc3)c2)c2ccccc12 [Example 13, 2-(5-(tert-Butyl)-2-methoxy-3-(3-(4-((2-(phenylamino)pyridin-4-yl)oxy)naphthalen-1-yl)ureido)phenyl)acetamide] | 0.239 | 1.39 | 7.58 | 0.0064 | 0.204 | 0.0504 | −4.0 | 6.5 | 9.5
11 | COc1c(NC(=O)Nc2ccc(Oc3ccnc(Nc4ccccc4)c3)c3ccccc23)cc(C(C)(C)C)cc1C(=O)NCCN1CCOCC1 [Example 14, 5-(tert-Butyl)-2-methoxy-N-(2-morpholinoethyl)-3-(3-(4-((2-(phenylamino)pyridin-4-yl)oxy)naphthalen-1-yl)ureido)benzamide] | 0.135 | 0.364 | > 10.1 | 0.0033 | 0.0392 | 0.0163 | −0.5 | 22.0 | 25.5
12 | COCCOCCOCCOc1cc(Nc2cc(Oc3ccc(NC(=O)Nc4cc(C(C)(C)C)cc(C(=O)NCCN5CCOCC5)c4OC)c4ccccc34)ccn2)cc(OC)c1 [Example 16, 5-(tert-Butyl)-2-methoxy-3-(3-(4-((2-((3-methoxy-5-(2-(2-(2-methoxyethoxy)ethoxy)ethoxy)-phenyl)amino)pyridin-4-yl)oxy)naphthalen-1-yl)ureido)-N-(2-morpholinoethyl)benzamide] | 0.04 | 0.093 | 5.67 | 0.0017 | 0.0077 | 0.0043 | 0.0 | −3.0 | −6.5
13 | COCCOCCOCCOc1cc(Nc2cc(Oc3ccc(NC(=O)Nc4cc(C(C)(C)C)cc([S+](C)[O-])c4OC)c4ccccc34)ccn2)cc(OC)c1 (stereo not drawn) [Example 17, 1-(5-(tert-Butyl)-2-methoxy-3-(methylsulfinyl)phenyl)-3-(4-((2-((3-methoxy-5-(2-(2-(2-methoxyethoxy)ethoxy)ethoxy)phenyl)amino)pyridin-4-yl)oxy)naphthalen-1-yl)urea] | 0.03 | 0.134 | 10.3 | 0.0009 | 0.0305 | 0.0049 | −2.0 | −7.0 | −5.5
